What was measured:
H358 lung cancer cells [1] = format: cell-based
Description: (§1) Control cells were left untreated. […] Control cells were left untreated.
Cells were given fresh inhibitor on the first, second, and third days of treatment and viability was measured on the 4th day (i.e. 3 days post start of treatment). […]
(A) Structure of Spd-3a. (B) Western analysis of histone H3K9-acetylation and total histone H3, measured in control, untreated H358 lung cancer cells “C” or in H358 cells incubated 12 hours in the presence of 50 μM Spd-2a or Spd-3a. Each lane represents 60 μg cellular protein. (C) [3H]-thymidine incorporation (counts per minute) into DNA of H358 cells during a 6 hour pulse beginning at 42 hours post-start of treatment. Treatments were as follows (bars 1-6 left to right): (1) control: no treatment; (2) CPT alone: 5 nM 18 hours; (3) 3a alone: 50 μM; (4-6) 3a+CPT: CPT (5 nm, 18 hours)+3a at indicated dose. After 18 hours, CPT was removed and medium was replaced with fresh medium containing Spd-3a at the indicated dose. Each bar represents the average of triplicates. (D) 3-day 96-well viability assay of H358 cells grown in the presence of increasing amounts of Spd-2a or Spd-3a, with or without CPT (5 nM 18 hours). […] Each data point represents the average of three wells.
(§2) Date of exp: Jul. […] Date of exp: Sep.
(§3) Cells were plated in 96-well plates at 2000 cells per well and treated with the indicated doses of spd-3a. Cell viability was measured by the MTS assay 3 days later.
DLD-1 cells or H358 cells were plated in 96-well plates at 2000 cells per well and treated with the indicated doses of (A) spm-3 or (B) spm-2. (C) Cell viability was measured by the MTS assay 3 days later. Similar experiment using GT41 fibroblasts with spm2 or spm 3. Each assay point represents an average of duplicates. […]

[2] = tested on: endogenous HATs associated with solubilized chromatin; settings: Bandyopadhyay et al, 2009; cited from earlier work
MCF7 breast cancer cells = settings: for effect as single agent on viability: 72 hr assay, DFMO 100 μM, 5FU 2 μM, doxorubicin 100 nM
Description: Viability was measured 3 days after the start of treatment and is expressed as a percentage of control (untreated) cell viability.
Each point is average of triplicates. […]
The present inventors carried out 96-well viability assays as we have previously described (Saadatmandi et al, Cancer Gene Therapy (2002) 9:830-9), in which MCF7 breast cancer cells were plated at 3000 cells per well. After overnight attachment, triplicate wells were treated with increasing doses of inhibitor 1a. Control wells were left untreated. After 3 days, cell viability was measured by the MTS assay, which measures the bioconversion of an uncolored substrate to a colored formazan derivative, and is proportional to cell number.

[3] = tested on: MDA MB-435 breast cancer cells; test: 72 hr viability assay, MDA MB-435; format: cell-based; settings: 72 hr assay; DFMO 100 μM, 5FU 2 μM, doxorubicin 100 nM
γ-H2A.X in H358 cells = test: γ-H2A.X Western / double strand break repair assay; format: cell-based; settings: 18 hours post-start; low doses as in FIG. 3
Description: Also shown are controls for no treatment (“c” minus 1a) or treatment with 1a only (“c” plus 1a). Each lane represents 60 μg protein. […] Each lane represents 60 μg protein.
To measure DSB repair, cells were incubated for 1 hour with 10 μM camptothecin to induce DSBs, followed by incubation in the presence or absence of 50 μM 1a. At fixed times, histones were prepared by extraction in 0.2M H2SO4 as described previously and 50 μg extract was analyzed by 12% SDS-PAGE followed Western analysis as described previously, using rabbit polyclonal anti-γ-H2A.X [phosphor ser 139] (Novus Biologicals, Littleton, Colo.) or anti-H3 (Upstate Biotechnology, Inc, Lake Placid, N.Y.). Band intensities were quantitated digitally. To study acetylation of γ-H2A.X, we carried out co-immunoprecipitation analysis using 50 μg extract protein in immunoprecipitation buffer (10 mM sodium phosphate pH 7, 0.15 M NaCl, 0.1% SDS, 1% NP40, 1% sodium deoxycholate, aprotinin, 1 mM PMSF, complete protease inhibitors (Roche) using immobilized anti-acetyl-lysine (Millipore, Temecula, Calif.) in the immunoprecipitation step. The immunoprecipitated material was then analyzed as for Western analysis using anti γ-H2A.X.

BT20 TNBC cells = test: 3-day viability assay, BT20; format: cell-based; settings: 5 nM
Excerpt: as §2
The effect of spd-2a on the BT20 breast cancer cell line derived form a spontaneous TNBC with wild-type BrCa1 was examined. […] Having previously established that spd-2a is a therapy sensitizer, the present inventors then examined the combined effects of spd-2a and camptothecin (the basis for the chemotherapeutic drug, Irinotecan).

[4] = tested on: DU145 prostate cancer cells; test: Viability assay, DU145; format: cell-based; settings: 5 nM camptothecin or 10 μM 2a
Description: as §3

[5] = tested on: GT41F human skin fibroblast cells; test: [3H]-thymidine incorporation in normal fibroblasts; format: cell-based; settings: 50 μM 1a alone or 5 nM camptothecin alone
Excerpt: (§4) Cells were either labeled immediately before treatment (starting DNA synthesis rate), or subjected to the indicated treatments and then pulsed on successive days until day 4. DNA synthesis is represented as the percent of starting DNA synthesis rate.
The present inventors used a 96-well viability assays as described in Saadatmandi et al (Cancer Gene Therapy (2002) 9:930-9) to examine the effect of the spermidine-CoA inhibitor disclosed previously on DNA synthesis in normal GT41F human skin fibroblast cells, as well as its combined effect with camptothecin. GT41F cells were plated in 96-well plates at 3000 cells per well. […] Following the 6-hour labeling, cells were harvested and incorporation of [^3H]-thymidine was determined by scintillation counting.

H358 lung cancer cells [6] = test: [3H]-thymidine incorporation (DNA synthesis) assay in H358 cells; format: cell-based; settings: 5 nM alone (18 or 24 hours)
Description: (A) Structures of 1a, and the acetylated side chain of a lysine residue within the polypeptide chain of a protein targeted by the acetylating enzyme (R1 and R2 are the main chain elements on both sides of the lysyl residue). (B) [^3H]-thymidine incorporation into DNA of H358 cells pulsed for 6 hrs at three different time points after the addition of increasing concentrations of 1a, i.e., at 6-12 hrs (12 hr curve), at 18-24 hours (24 hr curve), or at 42-48 hrs (48 hr curve). Incorporation is represented as a percentage relative to control (untreated) cells. (C) Cell cycle analysis of propidium iodide-stained cells harvested at various times after addition of 50 μM 1a. % of cells in G1, S, and G2 represents the average of two independent profiles. (D) Western analysis of histone H3 lysine 9 acetylation, histone H3 lysine 56 acetylation, histone H3 lysine 9 methylation, and total histone H3, before “c” or at the indicated times after addition of 50 μM 1a. Each lane represents 60 μg cellular protein.
as §1
as §4, with “rate. Viability was determined for each treatment condition 24 hours post-start of treatment by the trypan blue exclusion assay, with percentages of viable cells indicated to the right of the graph.” for “rate.”
H358 cells (2,000/well) in 96-well plates were treated with 1, 10 or 50 μM of spd-1a, spd-2a, spd-3a, spm3, or spm2 for 12 hours. Triplicate wells of cells were pulsed 6 hours with 0.5 μCi [^3H]-thymidine (NEN, Boston Mass.) post-start of drug treatment, and harvested onto filter paper using a Brandel Harvester and subjected to scintillation counting. Untreated cells were pulsed from 0-6 hrs to establish the initial rate of incorporation.
Cells were plated in 96-well plates (2000 cells per well to insure conditions for exponential growth for untreated cells over the time course of the experiment) and exposed to the following treatments: 1a (50 μM); camptothecin (Sigma, St Louis, Mo. 5 nM, 18 hours); cisplatin (Platinol, obtained through local pharmacies, 2 μM, 1 hour 15 minutes), 5-fluorouracil (5FU, Adrucil™, obtained through local pharmacies, 2 μM, 1 hour 15 minutes), Taxotere (provided by the late Dr. Pierre Potier, 5 nM, 18 hours). UVC treatment (40 J/m^2) using a Stratalinker™, Stratagene, La Jolla, Calif.) was carried using medium lacking phenol red. At 0-6 hr, 18-24 hr (day 1), 42-48 hr […], 66-72 hr (day 3), and 90-96 hr (day 4) post-start of treatment, triplicate wells were incubated with 0.5 μCi [^3H]-thymidine (NEN, Boston Mass.), harvested onto filter paper, and subjected to scintillation counting. Trypan blue exclusion assays for cell membrane integrity were carried out as known in the art.
The present inventors used 96-well viability assays as described in Saadatmandi et al (Cancer Gene Therapy (2002) 9:[…]) to examine the effect of 1a on DNA synthesis in H358 cells, as well as the combined effects of 1a and chemotherapeutic agents. H358 cells were plated in 96-well plates at 3000 cells per well. […]

[7] = tested on: γ-H2A.X in DU145 prostate cancer cells; test: γ-H2A.X immunofluorescence in DU145 cells; format: cell-based; settings: 5 nM camptothecin alone, 8 hours
Excerpt: The immunofluorescence images on the left and right sides of the middle scheme illustrate this visually. […] Cells were fixed and stained with a rabbit antibody to the histone variant, γ-H2A.X, a marker for DNA double stranded breaks, followed by staining with a fluorescein (FITC)-tagged goat anti rabbit secondary antibody. Nuclei were stained with Hoescht 33345.

Compound: CC(C)(COP(=O)(O)OP(=O)(O)OC[C@H]1O[C@@H](n2cnc3c(N)ncnc32)[C@H](O)[C@@H]1OP(=O)(O)O)[C@@H](O)C(=O)NCCC(=O)NCCSCC(=O)NCCCCNCCCN [1b, spermidine [N8]-CoA]
- suppression of 3 day cell viability (H358 lung cancer cells [1]): 60-70%
- inhibitory activity against endogenous HAT activity, isomers compared [2]: comparable inhibitory activity

Compound: O=c1[nH]cc(F)c(=O)[nH]1 [5FU, 5-Fluorouracil]
- effect as single agent on viability (MCF7 breast cancer cells): minimal effects
- effect as single agent on viability [3]: minimal effects
- γ-H2A.X level, single agent (γ-H2A.X in H358 cells): weakly detectable

Compound: CC[C@@]1(O)C(=O)OCc2c1cc1n(c2=O)Cc2cc3ccccc3nc2-1 [camptothecin]
- 2-day cell viability relative to untreated cells (MCF7 breast cancer cells; 5 nM camptothecin alone, 18 hour): no effect
- effect of camptothecin by itself (BT20 TNBC cells): no effect
- effect of the dose on cell viability, single agent [4]: minimal effects on cell viability
- effect on incorporation of [3H]-thymidine, single agent [5]: virtually no effect
- γ-H2A.X level, single agent (γ-H2A.X in H358 cells): weakly detectable
- effect of camptothecin alone on [3H]-thymidine incorporation (H358 lung cancer cells [6]): no detectable effect
- DNA damage (γ-H2A.X staining) [7]: minimal damage

Compound: N.N.[Cl][Pt][Cl] [cisplatin, cis-diamminedichloro-platinium]
- γ-H2A.X level, single agent (γ-H2A.X in H358 cells): weakly detectable

Compound: COc1cccc2c1C(=O)c1c(O)c3c(c(O)c1C2=O)C[C@@](O)(C(=O)CO)C[C@@H]3O[C@H]1C[C@H](N)[C@H](O)[C@H](C)O1 [doxorubicin]
- effect as single agent on viability (MCF7 breast cancer cells): minimal effects
- effect as single agent on viability [3]: minimal effects

— patent publication US10617656B2, “Methods of increasing the cytotoxicity of chemotherapeutic agents with multisubstrate inhibitors of histone, protein-Lys, polyamine acetylation, and polyamine metabolism” (Vanderbilt University, priority 2010, dated 2020)
